Data reported in patent publication US20230399341A1, “7-PHENYL SUBSTITUTED 2-AMINOQUINAZOLINE INHIBITORS OF HPK1” (MERCK SHARP & DOHME LLC, priority 2020, published 2023).

Biological target: T1, Human HPK1, catalytic domain (Homo sapiens, UniProt Q92918)
T1 sequence (Q92918 1-346): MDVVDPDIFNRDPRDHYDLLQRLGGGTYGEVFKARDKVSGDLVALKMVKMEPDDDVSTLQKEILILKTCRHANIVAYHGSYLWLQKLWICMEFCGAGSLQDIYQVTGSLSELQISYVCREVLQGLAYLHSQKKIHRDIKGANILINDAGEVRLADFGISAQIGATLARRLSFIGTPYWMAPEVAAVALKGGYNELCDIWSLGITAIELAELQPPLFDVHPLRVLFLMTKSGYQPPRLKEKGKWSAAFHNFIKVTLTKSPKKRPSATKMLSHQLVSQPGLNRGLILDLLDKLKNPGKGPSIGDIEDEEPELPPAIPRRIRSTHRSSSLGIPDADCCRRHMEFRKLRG
Assay: HPK1-SLP76 TR-FRET Assay
Assay type: biochemical
Conditions: 75 pM HPK1, ATP 10 uM, SLP76 10 nM, 30 min pre-incubation, 60 min reaction

Compound | IC50 [nM]
COc1cc2c(cc1Nc1ncc3ccc(-c4cncc(NS(=O)(=O)C(C)C)c4)cc3n1)CNCC2 [Compound 1-51, N-(5-{2-[(6-methoxy-1,2,3,4-tetrahydroisoquinolin-7-yl)amino]quinazolin-7-yl}pyridin-3-yl)propane-2-sulfonamide] | 48
COc1cc2c(cc1Nc1ncc3ccc(-c4c(C)cccc4F)cc3n1)CN(C)CC2 [Compound 1-5, 7-(2-fluoro-6-methylphenyl)-N-(6-methoxy-2-methyl-1,2,3,4-tetrahydroisoquinolin-7-yl)quinazolin-2-amine] | 230
COc1cc2c(cc1Nc1ncc3ccc(-c4cccc(CN5CCCCC5)c4)cc3n1)CNCC2 [Compound 1-69, N-(6-methoxy-1,2,3,4-tetrahydroisoquinolin-7-yl)-7-{3-[(piperidin-1-yl)methyl]phenyl}quinazolin-2-amine] | 215
COc1cc2c(cc1Nc1ncc3ccc(-c4cc(C5(CO)CC5)ccc4OC)cc3n1)CNCC2 [Compound 1-74, [1-(4-methoxy-3-{2-[(6-methoxy-1,2,3,4-tetrahydroisoquinolin-7-yl)amino]quinazolin-7-yl}phenyl)cyclo-propyl]methanol] | 143
COc1cc2c(cc1Nc1ncc3ccc(-c4cnc5[nH]c(=O)[nH]c5c4)cc3n1)CN(C)CC2 [Compound 1-106, 6-{2-[(6-methoxy-2-methyl-1,2,3,4-tetrahydroisoquinolin-7-yl)amino]quinazolin-7-yl}-1,3-dihydro-2H-imidazo[4,5-b]pyridin-2-one] | 44.1
COc1cc2c(cc1Nc1ncc3cc(Cl)c(-c4cnc5c(c4C)NCCO5)cc3n1)CN(C)CC2 [Compound 1-96, 6-chloro-N-(6-methoxy-2-methyl-1,2,3,4-tetrahydroisoquinolin-7-yl)-7-(8-methyl-2,3-dihydro-1H-pyrido[2,3-b][1,4]oxazin-7-yl)quinazolin-2-amine] | 1.85
COc1cc2c(cc1Nc1ncc3ccc(-c4cnc5cccnc5c4)cc3n1)CN(C)CC2 [Compound 1-25, N-(6-methoxy-2-methyl-1,2,3,4-tetrahydroisoquinolin-7-yl)-7-(,15-naphthyridin-3-yl)quinazolin-2-amine] | 20
COc1cc2c(cc1Nc1ncc3ccc(-c4c(C)cccc4F)cc3n1)CNCC2 [Compound 1-94, 7-(2-fluoro-6-methylphenyl)-N-(6-methoxy-1,2,3,4-tetrahydroisoquinolin-7-yl)quinazolin-2-amine] | 81.3
COc1cc2c(cc1Nc1ncc3ccc(-c4c[nH]nc4C)cc3n1)CN(C)CC2 [Compound 1-105, N-(6-methoxy-2-methyl-1,2,3,4-tetrahydroisoquinolin-7-yl)-7-(3-methyl-1H-pyrazol-4-yl)quinazolin-2-amine] | 196
COc1cc2c(cc1Nc1ncc3ccc(-c4cccc(C#N)c4)cc3n1)CNCC2 [Compound 1-65, 3-{2-[(6-methoxy-1,2,3,4-tetrahydroisoquinolin-7-yl)amino]quinazolin-7-yl}benzonitrile] | 120
COc1cc2c(cc1Nc1ncc3ccc(-c4ccccc4-c4ccnn4C)cc3n1)CN(C)CC2 [Compound 1-109, N-(6-methoxy-2-methyl-1,2,3,4-tetrahydroisoquinolin-7-yl)-7-[2-(1-methyl-1H-pyrazol-5-yl)phenyl]quinazolin-2-amine] | 0.812
COc1cc2c(cc1Nc1ncc3ccc(-c4ccc5c(c4)CCCO5)cc3n1)CNCC2 [Compound 1-75, 7-(3,4-dihydro-2H-1-benzopyran-6-yl)-N-(6-methoxy-1,2,3,4-tetrahydroisoquinolin-7-yl)quinazolin-2-amine] | 91.6
CCNS(=O)(=O)c1cccc(-c2ccc3cnc(Nc4cc5c(cc4OC)CCNC5)nc3c2)c1 [Compound 1-84, N-ethyl-3-{2-[(6-methoxy-1,2,3,4-tetrahydroisoquinolin-7-yl)amino]quinazolin-7-yl}benzene-1-sulfonamide] | 53.7
COc1cc2c(cc1Nc1ncc3ccc(-c4ccc(CC#N)nc4)cc3n1)CN(C)CC2 [Compound 1-108, (5-{2-[(6-methoxy-2-methyl-1,2,3,4-tetrahydroisoquinolin-7-yl)amino]quinazolin-7-yl}pyridin-2-yl)acetonitrile] | 56

The remaining lines, values ahead:

IC50 [nM] | Compound
63 | COc1cc2c(cc1Nc1ncc3ccc(N4CC(C(C)(C)O)OC4=O)cc3n1)CN(C)CC2 (racemic) [Compound 3-9, (S and R)-5-(2-hydroxypropan-2-yl)-3-{2-[(6-methoxy-2-meth-yl-1,2,3,4-tetrahydroisoquinolin-7-yl)amino]quinazolin-7-yl}-1,3-oxazolidin-2-one]
0.0508 | Cc1c(-c2cc3nc(Nc4ccc(CS(C)(=O)=O)cc4)ncc3c(N)c2F)cnc2c1NCCO2 [Compound 2-24, 6-fluoro-7-(8-methyl-2,3-dihydro-1H-pyrido[2,3-b][1,4]oxazin-7-yl)-N˜2˜-{4-[(methylsulfonyl)methyl]phenyl}quinazoline-2,5-diamine]
0.152 | COc1cc2c(cc1Nc1ncc3c(N)c(F)c(-c4cnc5c(c4C)NCCO5)cc3n1)C(C)N(C)CC2 (single isomer, unassigned) [Compound 2-35, (S or R)-6-fluoro-N^2-(6-methoxy-1,2-dimethyl-1,2,3,4-tetrahydroisoquinolin-7-yl)-7-(8-methyl-2,3-dihydro-1H-pyrido[2,3-b][14]oxazin-7-yl)quinazoline-2,5-diamine]
0.0589 | Cc1c(-c2c(F)c(N)c3cnc(Nc4ccc5c(c4)CN(C)CC5)nc3c2Cl)cnc2c1NCCO2 [Compound 2-95, (+ or −)-8-chloro-6-fluoro-7-(8-methyl-2,3-dihydro-1H-pyrido[2,3-b][1,4]oxazin-7-yl)-N~2~- (2-methyl-1,2,3,4-tetrahydroisoquinolin-7-yl)quinazoline-2,5-diamine]
424 | Cc1ccc(C#N)cc1-c1cc2nc(Nc3ccc(S(C)(=O)=O)cc3)ncc2c(N)c1F [Compound 2-52, 3-(5-amino-6-fluoro-2-{[4-(methylsulfonyl)phenyl]amino}quinazolin-7-yl)-4-methylbenzonitrile]
392 | CNC(=O)CNc1ccc2cnc(Nc3cc4c(cc3OC)CCN(C)C4)nc2c1 [Compound 3-70, N~2~-{2-[(6-methoxy-2-methyl-1,2,3,4-tetrahydroisoquinolin-7-yl)amino]quinazolin-7-yl}-N-methylglycinamide]
771 | COc1cc2c(cc1Nc1ncc3ccc(N4CCCC(CN5CCCC5=O)C4)cc3n1)CN(C)CC2 (racemic) [Compound 3-20, (S and R)-1-1(1-12-[(6-methoxy-2-methyl-1,2,3,4-tetrahydroiso-quinolin-7-yl)amino]quinazolin-7-yl}piperidin-3-yl)methyl]-pyrrolidin-2-one]
0.12 | Cc1c(-c2cc3nc(Nc4ccc(CS(=O)(=O)N5CCCC5)cc4)ncc3c(N)c2F)cnc2c1NCCO2 [Compound 2-115, 6-fluoro-7-(8-methyl-2,3-dihydro-1H-pyrido[2,3-b][1,4]oxazin-7-yl)-N~2~- {4-[(pyrrolidine-1-sulfonyl)methyl]phenyl} quinazoline-2,5-diamine]
2.93 | Cc1c(-c2c(F)c(N)c3cnc(Nc4ccc5c(c4)CN(C)CC5)nc3c2Cl)cnc2c1NCCO2 (single isomer, unassigned) [Compound 2-179, (+ or −)-8-chloro-6-fluoro-7-(8-methyl-2,3-dihydro-1H-pyrido[2,3-b][1,4]oxazin-7-yl)-N~2~- (2-methyl-1,2,3,4-tetrahydroisoquinolin-7-yl)quinazoline-2,5-diamine]
0.782 | Cc1c(-c2cc3nc(Nc4cc5c(cc4Cl)CCN(C)C5)ncc3c(N)c2F)cnc2c1NCCO2 [Compound 2-64, N~2~-(6-chloro-2-methyl-1,2,3,4-tetrahydroisoquinolin-7-yl)-6-fluoro-7-(8-methyl-2,3-dihydro-1H-pyrido[2,3-b][1,4]oxazin-7-yl)quinazoline-2,5-diamine]
46.3 | COc1cc2c(cc1Nc1ncc3ccc(Nc4ccc5c(c4)C(=O)N(C)C5)cc3n1)CN(C)CC2 [Compound 3-23, 6-({2-[(6-methoxy-2-methyl-1,2,3,4-tetrahydroisoquinolin-7-yl)amino]quinazolin-7-yl}-amino)-2-methyl-2,3-dihydro-1H-isoindol-1-one]
0.0898 | Cc1c(-c2cc3nc(Nc4ccc5c(c4)CC(C)(C)N(C)C5)ncc3c(N)c2F)cnc2c1NCCO2 (single isomer, unassigned) [Compound 2-126, 6-fluoro-7-(8-methyl-2,3-dihydro-1H-pyrido[2,3-b][1,4]oxazin-7-yl)-N2-(2,3,3-trimethyl-1,2,3,4-tetrahydroisoquinolin-6-yl)quinazoline-2,5-diamine]
32.7 | COc1nc(C2(C#N)CC2)ccc1Nc1ncc2c(N)c(F)c(-c3cnc4c(c3C)NCCO4)c(Cl)c2n1 [Compound 2-182, (+ or −)-1-(5-{[5-amino-8-chloro-6-fluoro-7-(8-methyl-2,3-dihydro-1H-pyrido[2,3-b][1,4]oxazin-7-yl)quinazolin-2-yl]amino}-6-methoxypyridin-2-yl)cyclopropane-1-carbonitrile]
72.5 | Cc1c(-c2c(F)c(N)c3cnc(Nc4ccc(CS(C)(=O)=O)cc4F)nc3c2Cl)cnc2c1NCCO2 [Compound 2-135, 8-chloro-6-fluoro-N2-(2-fluoro-4-((methylsulfonyl)methyl)phenyl)-7-(8-methyl-2,3-dihydro-1H-pyrido[2,3-b][1,4]oxazin-7-yl)quinazoline-2,5-diamine]
2.19 | COc1cc2c(cc1Nc1ncc3c(N)cc(Oc4ccc5c(c4)CCNC5)cc3n1)CN(C)CC2 [Compound 4-9, N2-(6-Methoxy-2-methyl-1,2,3,4-tetrahydroisoquinolin-7-yl)-7-((1,2,3,4-tetrahydroisoquinolin-6-yl)oxy)quinazoline-2,5-diamine]
